Assay results taken from publication PMC6340895 (Protein & Cell, 2019).

Columns and labels:
[1] = tested on: pseudotype of GTOV, JUNV, MACV, SABV, CHAPV, LCMV, LUJV, MOPV, EBOV, and MARV; assay type: cell-based
[2] = in vitro
[3] = tested on: LASV; conditions: cited from earlier work
[4] = tested on: CHAPVpv; assay: microbe, parasite or virus in culture; assay type: cell-based, Chapare virus (CHAPV); conditions: Mammarenavirus chapareense, read-out: CHAPVpv IC50
[5] = tested on: JUNVpv; assay: organism not typed; assay type: cell-based, Junín virus (JUNV); conditions: read-out: JUNVpv IC50
[6] = tested on: SABVpv; assay: organism not typed; assay type: cell-based, Sabiá virus (SABV); conditions: read-out: SABVpv IC50
[7] = tested on: TfR1; assay type: cell-based
[8] = tested on: pseudotype of NW pathogenic arenaviruses; assay type: cell-based

Structure (SMILES) | CC50 [2] [µM] | further results
C/C(=N\NC(=O)CCc1cccc(C)c1)c1ccc(NC(=O)c2ccco2)cc1 [compound 21, O=C(CCC1=CC(C)=CC=C1)N/N=C(C)/C2=CC=C(NC(C3=CC=CO3)=O)C=C2] | > 30 | Antiviral specificity across pseudotype panel [1]: largely maintained LASV specificity
C/C(=N\NC(=O)CCCCc1ccccc1)c1ccc(NC(=O)c2ccco2)cc1 [compound 27, O=C(CCCCC1=CC=CC=C1)N/N=C(C)/C2=CC=C(NC(C3=CC=CO3)=O)C=C2] | > 30 | –
COc1ccc(CCC(=O)N/N=C(\C)c2ccc(NC(=O)c3ccco3)cc2)c(OC)c1 [compound 28, O=C(CCC1=C(OC)C=C(OC)C=C1)N/N=C(C)/C2=CC=C(NC(C3=CC=CO3)=O)C=C2] | > 30 | –
C/C(=N\NC(=O)Cc1ccc(Cl)cc1Cl)c1ccc(NC(=O)c2ccco2)cc1 [compound 8, O=C(CC1=C(Cl)C=C(Cl)C=C1)N/N=C(C)/C2=CC=C(NC(C3=CC=CO3)=O)C=C2] | > 30 | –
C/C(=N\NC(=O)CCc1ccccc1C(F)(F)F)c1ccc(NC(=O)c2ccco2)cc1 [compound 30, O=C(CCC1=C(C(F)(F)F)C=CC=C1)N/N=C(C)/C2=CC=C(NC(C3=CC=CO3)=O)C=C2] | > 30 | –
C/C(=N\NC(=O)CCCc1ccccc1)c1ccc(NC(=O)c2ccco2)cc1 [compound 56, O=C(CCCC1=CC=CC=C1)N/N=C(C)/C2=CC=C(NC(C3=CC=CO3)=O)C=C2] | > 30 | –
C/C(=N\NC(=O)CCCc1ccc(C)cc1)c1ccc(NC(=O)c2ccco2)cc1 [compound 23, O=C(CCCC1=CC=C(C)C=C1)N/N=C(C)/C2=CC=C(NC(C3=CC=CO3)=O)C=C2] | > 30 | –
C/C(=N\NC(=O)CCc1ccccc1)c1ccc(NC(=O)c2ccco2)cc1 [compound 3, O=C(CCC1=CC=CC=C1)N/N=C(C)/C2=CC=C(NC(C3=CC=CO3)=O)C=C2] | > 30 | –
C/C(=N\NC(=O)CCc1ccc([N+](=O)[O-])cc1)c1ccc(NC(=O)c2ccco2)cc1 [compound 24, O=C(CCC1=CC=C([N+]([O-])=O)C=C1)N/N=C(C)/C2=CC=C(NC(C3=CC=CO3)=O)C=C2] | > 30 | –
C/C(=N\NC(=O)CCc1ccccc1C)c1ccc(NC(=O)c2ccco2)cc1 [compound 20, O=C(CCC1=C(C)C=CC=C1)N/N=C(C)/C2=CC=C(NC(C3=CC=CO3)=O)C=C2] | > 30 | –
C/C(=N\NC(=O)CCc1ccc(F)cc1)c1ccc(NC(=O)c2ccco2)cc1 [compound 26, O=C(CCC1=CC=C(F)C=C1)N/N=C(C)/C2=CC=C(NC(C3=CC=CO3)=O)C=C2] | > 30 | –
C/C(=N\NC(=O)Cc1ccccc1)c1ccc(NC(=O)c2ccco2)cc1 [compound 7, O=C(CC1=CC=CC=C1)N/N=C(C)/C2=CC=C(NC(C3=CC=CO3)=O)C=C2] | > 30 | –
C/C(=N\NC(=O)CCc1ccccc1F)c1ccc(NC(=O)c2ccco2)cc1 [compound 10, O=C(CCC1=C(F)C=CC=C1)N/N=C(C)/C2=CC=C(NC(C3=CC=CO3)=O)C=C2] | > 30 | –
COc1ccc(CCC(=O)N/N=C(\C)c2ccc(NC(=O)c3ccco3)cc2)cc1 [compound 22, O=C(CCC1=CC=C(OC)C=C1)N/N=C(C)/C2=CC=C(NC(C3=CC=CO3)=O)C=C2] | > 30 | –
C/C(=N\NC(=O)CCc1cccc([N+](=O)[O-])c1)c1ccc(NC(=O)c2ccco2)cc1 [compound 25, O=C(CCC1=CC([N+]([O-])=O)=CC=C1)N/N=C(C)/C2=CC=C(NC(C3=CC=CO3)=O)C=C2] | > 30 | –
C/C(=N\NC(=O)CCc1ccc(Br)cc1)c1ccc(NC(=O)c2ccco2)cc1 [compound 29, O=C(CCC1=CC=C(Br)C=C1)N/N=C(C)/C2=CC=C(NC(C3=CC=CO3)=O)C=C2] | > 30 | Antiviral specificity across pseudotype panel [1]: largely maintained LASV specificity
C/C(=N\NC(=O)C1CC1c1ccccc1)c1ccc(NC(=O)c2ccco2)cc1 (stereo not shown) [ST-161] | – | Antiviral specificity [3]: LASV specific
C/C(=N\NC(=O)CCc1ccc(C)cc1)c1ccc(NC(=O)c2ccco2)cc1 [compound 9, O=C(CCC1=CC=C(C)C=C1)N/N=C(C)/C2=CC=C(NC(C3=CC=CO3)=O)C=C2] | > 30 | –
C/C(=N\NC(=O)CCc1ccc(C(C)(C)C)cc1)c1ccc(NC(=O)c2ccco2)cc1 [compound 57, O=C(CCC1=CC=C(C(C)(C)C)C=C1)N/N=C(C)/C2=CC=C(NC(C3=CC=CO3)=O)C=C2] | > 30 | IC50 [4]: 0.0898 µM; IC50 [5]: 0.096 µM; IC50 [6]: 0.244 µM; Cell surface expression of TfR1 [7]: did not down-regulate; Effect on binding of NW pathogenic viruses [8]: no effect
Cc1ccc(CCC(=O)CCC(C)c2ccc(NC(=O)c3ccco3)cc2)cc1 (stereo not shown) [compound 72] | – | Antiviral specificity across pseudotype panel [1]: largely maintained LASV specificity
COc1ccc(CC(=O)N/N=C(\C)c2ccc(NC(=O)c3ccco3)cc2)cc1 [compound 54, O=C(CC1=CC=C(OC)C=C1)N/N=C(C)/C2=CC=C(NC(C3=CC=CO3)=O)C=C2] | > 30 | –
